# From paper PMC7827406, “Structure–Activity Relationship (SAR) Study of Spautin-1 to Entail the Discovery of Novel NEK4 Inhibitors” (International Journal of Molecular Sciences, 2021)
# Like-named read-outs stand apart in the source and are kept apart here.
# Columns and labels:
# Experiment in all cases: biochemical
# Design in all cases: Eurofins KinaseProfiler full panel at Km ATP, residual kinase activity (%) relative to DMSO
# [1] = target: Blk(h) (Homo sapiens, UniProt P51451)
# Method in brief: (§1)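 Radiometric kinase activity assays were run with ATP at Km and compounds at 10 µM, and remaining activity (%) was reported. A separate competitive binding screen measured DNA-tagged kinase displaced from immobilized active-site ligands by qPCR, giving percent kinase still bound at 10 µM compound in DMSO.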
# [2] = target: CDK4/cyclinD3(h) (Homo sapiens, UniProt P11802)
# Method in brief: as §1
# [3] = target: T1, CDK5/p25(h) (Homo sapiens, UniProt Q00535)
# T1 construct: p25
# T1 sequence (Q00535 whole entry): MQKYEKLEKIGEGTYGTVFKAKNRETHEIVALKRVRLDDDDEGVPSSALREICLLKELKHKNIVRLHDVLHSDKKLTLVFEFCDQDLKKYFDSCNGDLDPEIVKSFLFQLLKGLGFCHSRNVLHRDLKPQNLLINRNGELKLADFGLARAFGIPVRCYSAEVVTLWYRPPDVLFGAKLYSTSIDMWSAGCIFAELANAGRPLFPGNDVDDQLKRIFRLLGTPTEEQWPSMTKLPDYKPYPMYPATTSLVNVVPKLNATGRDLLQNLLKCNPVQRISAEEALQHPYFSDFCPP
# T1 sequence (Q15078 whole entry partner): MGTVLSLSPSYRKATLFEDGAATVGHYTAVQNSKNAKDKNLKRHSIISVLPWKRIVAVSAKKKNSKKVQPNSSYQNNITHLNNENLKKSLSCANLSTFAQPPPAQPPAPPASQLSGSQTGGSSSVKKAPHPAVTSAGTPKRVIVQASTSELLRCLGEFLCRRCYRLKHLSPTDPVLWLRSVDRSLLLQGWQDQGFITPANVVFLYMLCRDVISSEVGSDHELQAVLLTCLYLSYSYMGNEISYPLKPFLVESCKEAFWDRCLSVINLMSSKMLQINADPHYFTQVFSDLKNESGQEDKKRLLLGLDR
# Method in brief: as §1
# [4] = target: T2, DCAMKL1(h) (Homo sapiens, UniProt O15075)
# T2 construct: gene DCLK1
# T2 sequence (O15075 1-740): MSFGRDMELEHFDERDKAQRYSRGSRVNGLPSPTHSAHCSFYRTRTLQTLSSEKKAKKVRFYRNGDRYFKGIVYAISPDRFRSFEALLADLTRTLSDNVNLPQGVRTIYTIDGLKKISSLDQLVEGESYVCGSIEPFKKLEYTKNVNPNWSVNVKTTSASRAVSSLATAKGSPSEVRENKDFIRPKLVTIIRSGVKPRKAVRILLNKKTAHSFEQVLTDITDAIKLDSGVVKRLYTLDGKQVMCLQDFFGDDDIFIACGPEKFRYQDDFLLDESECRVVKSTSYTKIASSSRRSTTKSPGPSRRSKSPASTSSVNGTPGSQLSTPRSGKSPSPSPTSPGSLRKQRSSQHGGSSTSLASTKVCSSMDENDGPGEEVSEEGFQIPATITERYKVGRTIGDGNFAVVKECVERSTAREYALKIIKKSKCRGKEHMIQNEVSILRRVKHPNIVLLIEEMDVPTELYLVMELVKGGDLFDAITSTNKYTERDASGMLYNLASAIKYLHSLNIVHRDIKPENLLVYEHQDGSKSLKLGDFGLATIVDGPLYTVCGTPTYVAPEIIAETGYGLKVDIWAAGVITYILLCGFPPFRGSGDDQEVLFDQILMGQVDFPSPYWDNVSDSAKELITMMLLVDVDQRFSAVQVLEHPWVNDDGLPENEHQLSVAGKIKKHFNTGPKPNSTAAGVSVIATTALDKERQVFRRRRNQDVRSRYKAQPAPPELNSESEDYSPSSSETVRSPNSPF
# Method in brief: as §1
# [5] = target: MYLK2(h) (Homo sapiens, UniProt Q9H1R3)
# Method in brief: as §1
# [6] = target: T3, PDK1(h) (Homo sapiens, UniProt O15530)
# T3 construct: gene PDPK1
# T3 sequence (O15530 1-556): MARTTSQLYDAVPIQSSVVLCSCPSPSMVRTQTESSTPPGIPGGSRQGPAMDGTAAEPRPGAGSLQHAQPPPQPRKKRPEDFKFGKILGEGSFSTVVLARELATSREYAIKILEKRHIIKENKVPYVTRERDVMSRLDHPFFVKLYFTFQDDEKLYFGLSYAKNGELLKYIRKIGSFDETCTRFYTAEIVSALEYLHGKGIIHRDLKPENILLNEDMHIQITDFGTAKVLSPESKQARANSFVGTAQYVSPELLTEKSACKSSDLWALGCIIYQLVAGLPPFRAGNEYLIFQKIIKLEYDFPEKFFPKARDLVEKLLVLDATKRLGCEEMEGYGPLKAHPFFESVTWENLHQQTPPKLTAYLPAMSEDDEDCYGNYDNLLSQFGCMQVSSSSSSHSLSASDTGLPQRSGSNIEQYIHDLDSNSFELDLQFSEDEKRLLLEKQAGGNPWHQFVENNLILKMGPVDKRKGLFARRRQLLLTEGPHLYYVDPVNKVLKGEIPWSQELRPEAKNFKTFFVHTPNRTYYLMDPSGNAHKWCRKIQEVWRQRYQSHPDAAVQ
# Method in brief: as §1
# [7] = target: T4, PI3 Kinase (p110d/p85a)(m) (Mus musculus, UniProt O35904)
# T4 construct: gene Pik3cd
# T4 sequence (O35904 whole entry): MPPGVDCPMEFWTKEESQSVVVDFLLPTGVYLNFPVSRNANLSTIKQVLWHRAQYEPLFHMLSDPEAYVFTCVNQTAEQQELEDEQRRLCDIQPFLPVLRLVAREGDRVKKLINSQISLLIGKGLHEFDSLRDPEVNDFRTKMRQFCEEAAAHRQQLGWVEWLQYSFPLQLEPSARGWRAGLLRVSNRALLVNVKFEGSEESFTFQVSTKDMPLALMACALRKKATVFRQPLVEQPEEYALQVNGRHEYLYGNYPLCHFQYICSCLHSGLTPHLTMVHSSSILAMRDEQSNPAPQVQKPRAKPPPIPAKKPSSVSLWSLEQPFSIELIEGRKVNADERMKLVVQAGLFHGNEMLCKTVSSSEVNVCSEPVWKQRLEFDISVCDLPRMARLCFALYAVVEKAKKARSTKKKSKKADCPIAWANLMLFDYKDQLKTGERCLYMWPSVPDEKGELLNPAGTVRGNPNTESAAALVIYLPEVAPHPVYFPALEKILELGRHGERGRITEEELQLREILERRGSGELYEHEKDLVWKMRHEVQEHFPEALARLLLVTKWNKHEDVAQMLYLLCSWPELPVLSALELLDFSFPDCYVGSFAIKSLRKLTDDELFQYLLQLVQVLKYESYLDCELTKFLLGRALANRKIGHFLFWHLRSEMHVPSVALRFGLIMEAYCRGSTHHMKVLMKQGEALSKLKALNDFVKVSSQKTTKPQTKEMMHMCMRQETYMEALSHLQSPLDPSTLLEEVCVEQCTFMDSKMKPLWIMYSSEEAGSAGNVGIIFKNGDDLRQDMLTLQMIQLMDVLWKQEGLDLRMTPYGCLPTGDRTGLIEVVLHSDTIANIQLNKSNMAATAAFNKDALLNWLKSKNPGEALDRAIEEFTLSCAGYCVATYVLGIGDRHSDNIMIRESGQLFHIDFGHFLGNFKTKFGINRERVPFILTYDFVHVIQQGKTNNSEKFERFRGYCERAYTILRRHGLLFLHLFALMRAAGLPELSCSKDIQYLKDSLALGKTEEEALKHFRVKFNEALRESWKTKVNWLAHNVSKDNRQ
# T4 sequence (P26450 whole entry partner): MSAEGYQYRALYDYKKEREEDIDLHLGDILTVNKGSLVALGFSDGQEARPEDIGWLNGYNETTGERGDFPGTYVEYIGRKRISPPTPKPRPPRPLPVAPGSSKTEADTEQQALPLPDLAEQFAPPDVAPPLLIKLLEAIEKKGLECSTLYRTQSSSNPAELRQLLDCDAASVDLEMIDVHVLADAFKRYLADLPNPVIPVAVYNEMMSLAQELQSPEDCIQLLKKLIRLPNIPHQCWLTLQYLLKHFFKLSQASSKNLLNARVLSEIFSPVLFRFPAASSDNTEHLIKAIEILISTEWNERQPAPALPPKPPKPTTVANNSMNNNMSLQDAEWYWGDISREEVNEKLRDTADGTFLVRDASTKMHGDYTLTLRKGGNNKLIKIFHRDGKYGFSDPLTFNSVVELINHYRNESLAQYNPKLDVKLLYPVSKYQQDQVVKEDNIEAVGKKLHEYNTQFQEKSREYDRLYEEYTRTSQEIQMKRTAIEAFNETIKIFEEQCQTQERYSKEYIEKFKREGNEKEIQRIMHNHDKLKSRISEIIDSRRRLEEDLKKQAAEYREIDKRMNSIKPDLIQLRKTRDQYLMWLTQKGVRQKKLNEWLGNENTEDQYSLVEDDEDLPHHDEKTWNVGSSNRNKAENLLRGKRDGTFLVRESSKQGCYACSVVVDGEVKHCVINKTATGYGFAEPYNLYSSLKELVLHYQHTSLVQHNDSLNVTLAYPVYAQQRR
# Method in brief: as §1
# [8] = target: T5, PKA(h) (Homo sapiens, UniProt P17612)
# T5 construct: gene PRKACA
# Method in brief: as §1
# [9] = target: Plk3(h) (Homo sapiens, UniProt Q9H4B4)
# Sequence of Plk3(h) (Q9H4B4 whole entry): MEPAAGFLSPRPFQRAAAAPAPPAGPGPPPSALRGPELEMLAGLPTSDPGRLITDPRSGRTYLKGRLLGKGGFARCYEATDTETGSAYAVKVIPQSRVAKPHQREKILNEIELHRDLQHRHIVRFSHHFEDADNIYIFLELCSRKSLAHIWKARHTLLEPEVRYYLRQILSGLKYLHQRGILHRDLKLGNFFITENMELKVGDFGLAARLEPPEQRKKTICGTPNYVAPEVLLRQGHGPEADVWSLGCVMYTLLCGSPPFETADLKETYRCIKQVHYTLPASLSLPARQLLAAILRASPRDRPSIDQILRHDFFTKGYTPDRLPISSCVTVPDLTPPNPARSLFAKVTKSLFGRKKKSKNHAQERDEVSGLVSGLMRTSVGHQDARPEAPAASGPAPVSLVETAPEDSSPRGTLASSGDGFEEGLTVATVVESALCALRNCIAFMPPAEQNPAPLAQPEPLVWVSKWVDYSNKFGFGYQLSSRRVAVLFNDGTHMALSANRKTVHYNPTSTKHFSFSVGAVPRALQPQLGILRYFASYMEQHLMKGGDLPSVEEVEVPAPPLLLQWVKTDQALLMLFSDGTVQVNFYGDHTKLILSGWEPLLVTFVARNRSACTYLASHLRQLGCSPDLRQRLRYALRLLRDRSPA
# Method in brief: as §1
# [10] = target: TGFBR2(h) (Homo sapiens, UniProt P37173)
# Sequence of TGFBR2(h) (P37173 whole entry): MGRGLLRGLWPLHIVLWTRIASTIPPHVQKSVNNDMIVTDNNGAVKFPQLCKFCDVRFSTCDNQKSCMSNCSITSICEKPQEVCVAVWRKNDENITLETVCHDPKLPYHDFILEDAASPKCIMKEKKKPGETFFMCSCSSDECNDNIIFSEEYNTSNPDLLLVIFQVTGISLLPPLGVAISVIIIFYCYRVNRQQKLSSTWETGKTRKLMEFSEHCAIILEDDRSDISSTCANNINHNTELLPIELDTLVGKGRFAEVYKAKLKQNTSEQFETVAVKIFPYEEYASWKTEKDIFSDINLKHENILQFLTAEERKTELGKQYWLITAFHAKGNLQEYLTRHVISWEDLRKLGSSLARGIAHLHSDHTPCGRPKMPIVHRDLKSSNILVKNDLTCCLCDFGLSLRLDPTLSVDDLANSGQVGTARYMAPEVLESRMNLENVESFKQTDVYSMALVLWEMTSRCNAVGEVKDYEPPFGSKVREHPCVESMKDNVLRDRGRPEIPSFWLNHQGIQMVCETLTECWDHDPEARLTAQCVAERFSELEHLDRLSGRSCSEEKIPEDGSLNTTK
# Method in brief: as §1
# [11] = target: T6, ZAK(h) (Homo sapiens, UniProt Q9NYL2)
# T6 construct: gene MAP3K20
# T6 sequence (Q9NYL2 whole entry): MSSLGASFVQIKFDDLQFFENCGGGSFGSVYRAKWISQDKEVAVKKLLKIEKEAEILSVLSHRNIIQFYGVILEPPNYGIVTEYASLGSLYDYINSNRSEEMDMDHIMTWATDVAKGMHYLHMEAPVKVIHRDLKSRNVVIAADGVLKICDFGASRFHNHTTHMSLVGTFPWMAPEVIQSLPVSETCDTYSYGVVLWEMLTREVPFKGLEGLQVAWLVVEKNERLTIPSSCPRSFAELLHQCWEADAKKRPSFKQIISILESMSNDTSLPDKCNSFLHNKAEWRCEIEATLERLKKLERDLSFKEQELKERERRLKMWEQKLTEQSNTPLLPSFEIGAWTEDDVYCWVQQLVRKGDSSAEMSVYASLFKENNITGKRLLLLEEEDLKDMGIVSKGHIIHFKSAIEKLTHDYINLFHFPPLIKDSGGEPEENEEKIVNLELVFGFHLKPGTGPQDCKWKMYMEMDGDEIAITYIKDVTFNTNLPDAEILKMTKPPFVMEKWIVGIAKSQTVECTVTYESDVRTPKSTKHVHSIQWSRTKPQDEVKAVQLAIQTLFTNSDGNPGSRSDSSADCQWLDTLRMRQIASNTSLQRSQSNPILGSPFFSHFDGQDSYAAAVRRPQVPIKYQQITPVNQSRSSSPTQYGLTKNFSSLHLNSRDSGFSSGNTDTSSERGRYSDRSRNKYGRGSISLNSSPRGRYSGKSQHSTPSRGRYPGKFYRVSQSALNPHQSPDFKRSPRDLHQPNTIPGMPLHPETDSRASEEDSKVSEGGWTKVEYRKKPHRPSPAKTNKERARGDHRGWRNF
# Method in brief: as §1
# [12] = read-out: Residual activity (%) Spautin-1 5aa
# [13] = read-out: Residual activity (%) 5as
# [14] = read-out: Residual activity (%) 5at
# [15] = read-out: Residual activity (%) 5ay
# Sequence of Blk(h) (P51451 whole entry): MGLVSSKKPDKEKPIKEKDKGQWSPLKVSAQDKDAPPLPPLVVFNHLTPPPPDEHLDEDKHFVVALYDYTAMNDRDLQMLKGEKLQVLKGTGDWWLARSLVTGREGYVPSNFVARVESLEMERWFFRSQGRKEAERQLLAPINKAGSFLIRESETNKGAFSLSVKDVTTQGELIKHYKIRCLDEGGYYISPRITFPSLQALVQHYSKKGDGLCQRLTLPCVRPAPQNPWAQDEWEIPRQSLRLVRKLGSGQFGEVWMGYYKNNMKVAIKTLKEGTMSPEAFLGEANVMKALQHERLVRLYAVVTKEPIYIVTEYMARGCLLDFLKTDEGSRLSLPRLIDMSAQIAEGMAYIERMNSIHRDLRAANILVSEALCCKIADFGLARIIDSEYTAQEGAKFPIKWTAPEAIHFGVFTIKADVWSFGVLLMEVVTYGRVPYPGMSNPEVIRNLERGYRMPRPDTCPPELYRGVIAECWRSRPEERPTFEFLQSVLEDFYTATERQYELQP
smiles,measurement,setting,value
"Fc1ccc(CNc2ncnc3ccc(F)cc23)cc1 [5aa, 6-Fluoro-N-(4-fluorobenzyl)-4-Quinazolinamine]",remaining activity at 10 µM,[1]; [12],97%
same,remaining activity at 10 µM,[2]; [12],101%
same,remaining activity at 10 µM,[3]; [12],73%
same,remaining activity at 10 µM,[4]; [12],95%
same,remaining activity at 10 µM,[5]; [12],97%
same,remaining activity at 10 µM,[6]; [12],102%
same,remaining activity at 10 µM,[7]; [12],97%
same,remaining activity at 10 µM,[8]; [12],103%
same,remaining activity at 10 µM,[9]; [12],88%
same,remaining activity at 10 µM,[10]; [12],97%
same,remaining activity at 10 µM,[11]; [12],70%
"Fc1ccc(CCNc2ncnc3ccc(F)cc23)cc1 [5as, 6-Fluoro-N-[2-(4-Fluorophenyl)Ethyl]-4-Quinazolinamine]",remaining activity at 10 µM,[1]; [13],100%
same,remaining activity at 10 µM,[2]; [13],97%
same,remaining activity at 10 µM,[3]; [13],89%
same,remaining activity at 10 µM,[4]; [13],82%
same,remaining activity at 10 µM,[5]; [13],80%
same,remaining activity at 10 µM,[6]; [13],88%
same,remaining activity at 10 µM,[7]; [13],93%
same,remaining activity at 10 µM,[8]; [13],101%
same,remaining activity at 10 µM,[9]; [13],94%
same,remaining activity at 10 µM,[10]; [13],91%
same,remaining activity at 10 µM,[11]; [13],61%
"Fc1ccc2ncnc(NCCc3ccc(Cl)cc3)c2c1 [5at, N-[2-(4-Chlorophenyl)Ethyl]-6-Fluoro-4-Quinazolinamine]",remaining activity at 10 µM,[1]; [14],91%
same,remaining activity at 10 µM,[2]; [14],95%
same,remaining activity at 10 µM,[3]; [14],86%
same,remaining activity at 10 µM,[4]; [14],89%
same,remaining activity at 10 µM,[5]; [14],93%
same,remaining activity at 10 µM,[6]; [14],84%
same,remaining activity at 10 µM,[7]; [14],93%
same,remaining activity at 10 µM,[8]; [14],106%
same,remaining activity at 10 µM,[9]; [14],99%
same,remaining activity at 10 µM,[10]; [14],93%
same,remaining activity at 10 µM,[11]; [14],72%
"COc1ccc2ncnc(Nc3cccc(F)c3)c2c1 [5ay, N-(3-Fluorophenyl)-6-Methoxy-4-Quinazolinamine]",remaining activity at 10 µM,[1]; [15],85%
same,remaining activity at 10 µM,[2]; [15],100%
same,remaining activity at 10 µM,[3]; [15],80%
same,remaining activity at 10 µM,[4]; [15],84%
same,remaining activity at 10 µM,[5]; [15],89%
same,remaining activity at 10 µM,[6]; [15],90%
same,remaining activity at 10 µM,[7]; [15],96%
same,remaining activity at 10 µM,[8]; [15],97%
same,remaining activity at 10 µM,[9]; [15],92%
same,remaining activity at 10 µM,[10]; [15],96%
same,remaining activity at 10 µM,[11]; [15],61%
